Data taken from ChEMBL document CHEMBL1201862, “PubChem BioAssay data set” (2004).
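Assay format: 96-well plates, 48-hour exposure. Here, GI50 denotes the concentration required for 50% inhibition of growth.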 Activity calls are given as the source filed them. Rule as the data show it: active = GI50 up to about 1.1 µM and inactive = higher.

How the values were obtained:
Assay in all cases: DTP human tumour cell line panel, 48 h
786-0 = system: 786-0
A549 = system: A549
HCC 2998 = system: HCC 2998
HCT-116 = system: HCT-116
HCT-15 = system: HCT-15
HL-60 = system: HL-60
HOP-92 = system: HOP-92
HT-29 = system: HT-29
LOX IMVI = system: LOX IMVI
M14 = system: M14
NCI-H23 = system: NCI-H23
OVCAR-3 = system: OVCAR-3
OVCAR-8 = system: OVCAR-8
SNB-19 = system: SNB-19
SW-620 = system: SW-620
UACC-62 = system: UACC-62
OVCAR-5 = system: OVCAR-5
UACC-257 = system: UACC-257

Row | SMILES | GI50 (786-0) | GI50 (A549) | GI50 (HCC 2998) | GI50 (HCT-116) | GI50 (HCT-15) [µM] | GI50 (HL-60) | GI50 (HOP-92) | GI50 (HT-29) | GI50 (LOX IMVI) | GI50 (M14) | GI50 (NCI-H23) | GI50 (OVCAR-3) | GI50 (OVCAR-8) | GI50 (SNB-19) | GI50 (SW-620) | GI50 (UACC-62) | GI50 (OVCAR-5) | GI50 (UACC-257)
1 | COc1ccc2c(c1)CCc1c-2nc2cc3c(cc2c1O)OCO3 | > 100 µM (inactive) | > 100 µM (inactive) | > 100 µM (inactive) | > 100 µM (inactive) | > 100 | > 100 µM (inactive) | > 100 µM (inactive) | > 100 µM (inactive) | > 100 µM (inactive) | > 100 µM (inactive) | > 100 µM (inactive) | > 100 µM (inactive) | > 100 µM (inactive) | > 100 µM (inactive) | > 100 µM (inactive) | > 100 µM (inactive) | – | –
2 | O=c1c(-c2ccccc2)c(O)nc2[nH]c3ccccc3n12 | > 100 µM (inactive) | > 100 µM (inactive) | > 100 µM (inactive) | > 100 µM (inactive) | > 100 | > 100 µM (inactive) | > 100 µM (inactive) | > 100 µM (inactive) | > 100 µM (inactive) | > 100 µM (inactive) | > 100 µM (inactive) | > 100 µM (inactive) | > 100 µM (inactive) | > 100 µM (inactive) | > 100 µM (inactive) | > 100 µM (inactive) | > 100 µM (inactive) | > 100 µM (inactive)
3 | COc1cc(Nc2cnc3ccc(C(F)(F)F)cc3n2)cc(OC)c1OC | 13.5 µM (inactive) | 20.4 µM (inactive) | 4.43 µM (inactive) | 45.8 µM (inactive) | 3.95 | 9.71 µM (inactive) | 4.82 µM (inactive) | 12.2 µM (inactive) | 4.02 µM (inactive) | – | > 100 µM (inactive) | > 100 µM (inactive) | > 100 µM (inactive) | > 100 µM (inactive) | 71.8 µM (inactive) | – | > 100 µM (inactive) | 9.84 µM (inactive)
4 | COC(=O)CSc1nnc(-c2ccc(O)c([N+](=O)[O-])c2)[nH]1 | > 100 µM (inactive) | > 100 µM (inactive) | > 100 µM (inactive) | > 100 µM (inactive) | > 100 | > 100 µM (inactive) | > 100 µM (inactive) | > 100 µM (inactive) | > 100 µM (inactive) | > 100 µM (inactive) | > 100 µM (inactive) | > 100 µM (inactive) | > 100 µM (inactive) | > 100 µM (inactive) | > 100 µM (inactive) | > 100 µM (inactive) | > 100 µM (inactive) | > 100 µM (inactive)
5 | CNS(=O)(=O)NNS(=O)(=O)c1ccc(Br)cc1 | 63.1 µM (inactive) | > 100 µM (inactive) | > 100 µM (inactive) | 99.3 µM (inactive) | > 100 | > 100 µM (inactive) | 32.1 µM (inactive) | > 100 µM (inactive) | > 100 µM (inactive) | > 100 µM (inactive) | > 100 µM (inactive) | – | > 100 µM (inactive) | 0.309 µM (active) | > 100 µM (inactive) | > 100 µM (inactive) | > 100 µM (inactive) | > 100 µM (inactive)
6 | O=C(NC12CC3CC(CC(C3)C1)C2)C(=O)c1c[nH]c2ccc(Br)cc12 | 7.13 µM (inactive) | 14.4 µM (inactive) | 22.6 µM (inactive) | 14.6 µM (inactive) | 5.79 | 5.02 µM (inactive) | 20.8 µM (inactive) | 3.71 µM (inactive) | 5.25 µM (inactive) | 7.05 µM (inactive) | 33.1 µM (inactive) | 11.2 µM (inactive) | 18.1 µM (inactive) | 33.5 µM (inactive) | 25 µM (inactive) | 23.5 µM (inactive) | 36.9 µM (inactive) | 43.4 µM (inactive)
7 | O=C(NC12CC3CCC1CC(C3)C2)[C@@H]1CCCN1C(=O)OCc1ccccc1 (stereo partly specified) | 76.7 µM (inactive) | 50.4 µM (inactive) | 85.9 µM (inactive) | 58.9 µM (inactive) | 44.2 | 25.8 µM (inactive) | 18.6 µM (inactive) | 36.5 µM (inactive) | 59 µM (inactive) | 85.9 µM (inactive) | 43.3 µM (inactive) | 89.5 µM (inactive) | 50.5 µM (inactive) | 50.9 µM (inactive) | 77.3 µM (inactive) | 83.6 µM (inactive) | > 100 µM (inactive) | 34.7 µM (inactive)
8 | NC(=O)NC1C(C(=O)O)N(Cc2ccccc2)C(=O)N1Cc1ccccc1 (stereo unspecified) | > 100 µM (inactive) | > 100 µM (inactive) | > 100 µM (inactive) | > 100 µM (inactive) | > 100 | > 100 µM (inactive) | > 100 µM (inactive) | > 100 µM (inactive) | > 100 µM (inactive) | > 100 µM (inactive) | > 100 µM (inactive) | > 100 µM (inactive) | > 100 µM (inactive) | > 100 µM (inactive) | > 100 µM (inactive) | > 100 µM (inactive) | > 100 µM (inactive) | > 100 µM (inactive)
9 | COc1ccc(OCC(=O)O)c2c1CCCC2=O | > 100 µM (inactive) | > 100 µM (inactive) | > 100 µM (inactive) | > 100 µM (inactive) | > 100 | > 100 µM (inactive) | > 100 µM (inactive) | > 100 µM (inactive) | > 100 µM (inactive) | > 100 µM (inactive) | > 100 µM (inactive) | > 100 µM (inactive) | > 100 µM (inactive) | > 100 µM (inactive) | > 100 µM (inactive) | 81.3 µM (inactive) | > 100 µM (inactive) | > 100 µM (inactive)
10 | COC(=O)C12C3C4C5C3(C#N)C1C5(C(=O)OC)C42C(=O)N(C(C)C)C(C)C (stereo unspecified) | > 100 µM (inactive) | > 100 µM (inactive) | > 96.6 µM (inactive) | 39.9 µM (inactive) | > 42.2 | > 43.7 µM (inactive) | > 100 µM (inactive) | > 100 µM (inactive) | 58.1 µM (inactive) | > 100 µM (inactive) | > 100 µM (inactive) | > 100 µM (inactive) | > 63 µM (inactive) | > 100 µM (inactive) | > 26.7 µM (inactive) | > 100 µM (inactive) | > 100 µM (inactive) | > 100 µM (inactive)
11 | COC(=O)C(=O)C(C#N)c1cccc2ccccc12 (stereo unspecified) | > 100 µM (inactive) | > 100 µM (inactive) | > 100 µM (inactive) | > 100 µM (inactive) | > 100 | > 100 µM (inactive) | > 100 µM (inactive) | > 100 µM (inactive) | > 100 µM (inactive) | > 100 µM (inactive) | > 100 µM (inactive) | > 100 µM (inactive) | > 100 µM (inactive) | > 100 µM (inactive) | > 100 µM (inactive) | > 100 µM (inactive) | > 100 µM (inactive) | > 100 µM (inactive)
12 | CC(=O)NC(Cc1ccccc1)C(=S)N1CCCC1 (stereo unspecified) | > 100 µM (inactive) | > 100 µM (inactive) | > 100 µM (inactive) | > 100 µM (inactive) | > 100 | > 100 µM (inactive) | > 80.5 µM (inactive) | > 100 µM (inactive) | > 100 µM (inactive) | > 100 µM (inactive) | > 100 µM (inactive) | > 100 µM (inactive) | > 100 µM (inactive) | > 100 µM (inactive) | > 100 µM (inactive) | > 100 µM (inactive) | > 100 µM (inactive) | > 100 µM (inactive)
13 | NCCCCN(CCCN)/[N+]([O-])=N\O | > 100 µM (inactive) | > 100 µM (inactive) | > 100 µM (inactive) | > 100 µM (inactive) | > 100 | > 100 µM (inactive) | > 100 µM (inactive) | > 100 µM (inactive) | – | > 100 µM (inactive) | > 100 µM (inactive) | > 100 µM (inactive) | > 100 µM (inactive) | > 100 µM (inactive) | > 100 µM (inactive) | > 100 µM (inactive) | > 100 µM (inactive) | > 100 µM (inactive)
14 | O=C1C=CC2(O)OCC3C=C4O[C@@H]5OC6(CCCCC6)O[C@@H]5C4[C@@H]2[C@@H]13 (stereo partly specified) | 20.4 µM (inactive) | > 100 µM (inactive) | 53.2 µM (inactive) | 15.8 µM (inactive) | 17 | 16.5 µM (inactive) | 13.2 µM (inactive) | 22.3 µM (inactive) | 42.6 µM (inactive) | 20.5 µM (inactive) | 23.8 µM (inactive) | 24.2 µM (inactive) | 24.9 µM (inactive) | > 100 µM (inactive) | 27.4 µM (inactive) | 32.7 µM (inactive) | 31.8 µM (inactive) | 17.8 µM (inactive)
15 | COC(=O)/C=C/C1C2C3(CCC(C)C12C)OCCS3 (stereo unspecified) | > 100 µM (inactive) | > 100 µM (inactive) | > 100 µM (inactive) | > 100 µM (inactive) | > 100 | > 100 µM (inactive) | > 100 µM (inactive) | > 100 µM (inactive) | > 100 µM (inactive) | > 100 µM (inactive) | > 100 µM (inactive) | > 100 µM (inactive) | > 100 µM (inactive) | > 100 µM (inactive) | > 100 µM (inactive) | – | > 100 µM (inactive) | > 100 µM (inactive)
16 | CCN(CC)CCNc1ccc2nnn3c4ccccc4c(=O)c1c23 | 4.3 µM (inactive) | 3.59 µM (inactive) | 7.31 µM (inactive) | 4.44 µM (inactive) | 4.51 | 2.89 µM (inactive) | 2.48 µM (inactive) | 2.51 µM (inactive) | 2.86 µM (inactive) | 3.86 µM (inactive) | 5.81 µM (inactive) | 5.07 µM (inactive) | 3.15 µM (inactive) | 5.74 µM (inactive) | 1.43 µM (inactive) | 5.73 µM (inactive) | 3.67 µM (inactive) | 4.48 µM (inactive)
